Measurements from ChEMBL document CHEMBL5113478, “7-Azaindole, 2,7-diazaindole, and 1H-pyrazole as core structures for novel anticancer agents with potential chemosensitizing properties” (Eur J Med Chem, 2022).
The source made the active and inactive calls. The rule behind the calls is not given here.

Experiments:
MOLT-4 [1] = experiment: Antiproliferative activity against human MOLT-4 cells assessed as […] cell proliferation at 10 uM incubated for 48 hrs in presence of 2 uM of CDDP by WST-1 assay relative to control; format: functional
SAOS-2 [2] = experiment: Antiproliferative activity against human SAOS-2 cells assessed as […] cell proliferation at 10 uM incubated for 48 hrs by WST-1 assay relative to control; format: functional
MCF7 [3] = experiment: Antiproliferative activity against human MCF7 cells assessed as […] cell proliferation at 10 uM incubated for 48 hrs in presence of 10 uM of CDDP by WST-1 assay relative to control; format: functional
MOLT-4 [4] = experiment: Antiproliferative activity against human MOLT-4 cells assessed as […] cell proliferation at 10 uM incubated for 48 hrs by WST-1 assay relative to control; format: functional
A2780 [5] = experiment: Antiproliferative activity against human A2780 cells assessed as […] cell proliferation at 10 uM incubated for 48 hrs by WST-1 assay relative to control; format: functional
SAOS-2 [6] = experiment: Antiproliferative activity against human SAOS-2 cells assessed as […] cell proliferation at 10 uM incubated for 48 hrs in presence of 15 uM of CDDP by WST-1 assay relative to control; format: functional
HT-29 [7] = experiment: Antiproliferative activity against human HT-29 cells assessed as […] cell proliferation at 10 uM incubated for 48 hrs by WST-1 assay relative to control; format: functional
HT-29 [8] = experiment: Antiproliferative activity against human HT-29 cells assessed as […] cell proliferation at 10 uM incubated for 48 hrs in presence of 15 uM of CDDP by WST-1 assay relative to control; format: functional
1321N1 [9] = experiment: Chemo-sensitizing activity against human 1321N1 cells at 15 uM incubated for 48 hrs in presence of TMZ by MTT assay; format: functional, cell-based
A549 [10] = experiment: Antiproliferative activity against human A549 cells assessed as […] cell proliferation at 10 uM incubated for 48 hrs in presence of 15 uM of CDDP by WST-1 assay relative to control; format: functional
HeLa [11] = experiment: Antiproliferative activity against human HeLa cells assessed as […] cell proliferation at 10 uM incubated for 48 hrs by WST-1 assay relative to control; format: functional
Jurkat [12] = experiment: Antiproliferative activity against human Jurkat cells assessed as […] cell proliferation at 10 uM incubated for 48 hrs by WST-1 assay relative to control; format: functional
1321N1 [13] = experiment: Cytotoxicity against human 1321N1 cells assessed as reduction in cell viability at 15 uM incubated for 48 hrs by MTT assay; format: functional, cell-based
Jurkat [14] = experiment: Antiproliferative activity against human Jurkat cells assessed as […] cell proliferation at 10 uM incubated for 48 hrs in presence of 2 uM of CDDP by WST-1 assay relative to control; format: functional
HeLa [15] = experiment: Antiproliferative activity against human HeLa cells assessed as […] cell proliferation at 10 uM incubated for 48 hrs in presence of 15 uM of CDDP by WST-1 assay relative to control; format: functional
A549 [16] = experiment: Antiproliferative activity against human A549 cells assessed as […] cell proliferation at 10 uM incubated for 48 hrs by WST-1 assay relative to control; format: functional
MCF7 [17] = experiment: Antiproliferative activity against human MCF7 cells assessed as […] cell proliferation at 10 uM incubated for 48 hrs by WST-1 assay relative to control; format: functional
PANC-1 [18] = experiment: Antiproliferative activity against human PANC-1 cells assessed as […] cell proliferation at 10 uM incubated for 48 hrs by WST-1 assay relative to control; format: functional
GBM = experiment: Cytotoxicity against patient-derived human GBM cells assessed as reduction in cell viability at 15 uM incubated for 48 hrs by MTT assay; format: functional
PANC-1 [19] = experiment: Antiproliferative activity against human PANC-1 cells assessed as […] cell proliferation at 10 uM incubated for 48 hrs in presence of 15 uM of CDDP by WST-1 assay relative to control; format: functional
A2780 [20] = experiment: Antiproliferative activity against human A2780 cells assessed as […] cell proliferation at 10 uM incubated for 48 hrs in presence of 2 uM of CDDP by WST-1 assay relative to control; format: functional

SMILES	Activity (MOLT-4 [1])	Activity (SAOS-2 [2])	Activity (MCF7 [3])	Activity (MOLT-4 [4])	Activity (A2780 [5])	Activity (SAOS-2 [6])	Cell viability relative to control (HT-29 [7])	Activity (HT-29 [8])	Activity (A549 [10])	Activity (HeLa [11])	Activity (Jurkat [12])	Activity (Jurkat [14])	Activity (HeLa [15])	Activity (A549 [16])	Activity (MCF7 [17])	Activity (PANC-1 [18])	Activity (PANC-1 [19])	Activity (A2780 [20])	other results
CC(C)S(=O)(=O)c1ccc(-c2cnc3[nH]c(C(=O)N4CCc5ccccc5C4)cc3c2)cc1	57%	71%	57%	71%	71%	57%	71%	57%	57%	71%	71%	57%	57%	71%	71%	71%	57%	57%	Activity (1321N1 [9]): Active; Activity (1321N1 [13]): Active; Activity (GBM): 50%
CCN1CCN(C(=O)c2c[nH]c3ncc(-c4ccc(S(C)(=O)=O)cc4)cc23)CC1	70%	95%	70%	95%	95%	70%	95%	70%	70%	95%	95%	70%	70%	95%	95%	95%	70%	70%	–
CC(C)S(=O)(=O)c1ccc(-c2cnc3[nH]c(C(=O)NCc4ccccc4)cc3c2)cc1	61%	100%	61%	100%	100%	61%	100%	61%	61%	100%	100%	61%	61%	100%	100%	100%	61%	61%	–
CCN1CCN(C2CCN(C(=O)c3c[nH]c4ncc(-c5ccc(S(=O)(=O)C(C)C)cc5)cc34)CC2)CC1	62%	100%	62%	100%	100%	62%	100%	62%	62%	100%	100%	62%	62%	100%	100%	100%	62%	62%	–
CC(C)S(=O)(=O)c1ccc(-c2cnc3[nH]cc(C(=O)NCc4ccccc4)c3c2)cc1	65%	83%	65%	83%	83%	65%	83%	65%	65%	83%	83%	65%	65%	83%	83%	83%	65%	65%	–
CC(C)S(=O)(=O)c1ccc(-c2cc(C(=O)N3CCc4ccccc4C3)n[nH]2)cc1	57%	82%	57%	82%	82%	57%	82%	57%	57%	82%	82%	57%	57%	82%	82%	82%	57%	57%	Activity (1321N1 [9]): Active; Activity (1321N1 [13]): Active; Activity (GBM): 50%
CC(C)S(=O)(=O)c1ccc(-c2cnc3[nH]cc(C(=O)Nc4ccc(N(C)C)cc4)c3c2)cc1	59%	96%	59%	96%	96%	59%	96%	59%	59%	96%	96%	59%	59%	96%	96%	96%	59%	59%	–
CS(=O)(=O)c1ccc(-c2cc(C(=O)NCc3ccccc3)n[nH]2)cc1	63%	95%	63%	95%	95%	63%	95%	63%	63%	95%	95%	63%	63%	95%	95%	95%	63%	63%	–
CCN(CC)c1ccc(CNC(=O)c2c[nH]c3ncc(-c4ccc(S(=O)(=O)C(C)C)cc4)cc23)cc1	58%	64%	58%	64%	64%	58%	64%	58%	58%	64%	64%	58%	58%	64%	64%	64%	58%	58%	Activity (1321N1 [13]): Active; Activity (GBM): Active
CC(C)S(=O)(=O)c1ccc(-c2cc(C(=O)Nc3ccccc3)n[nH]2)cc1	70%	107%	70%	107%	107%	70%	107%	70%	70%	107%	107%	70%	70%	107%	107%	107%	70%	70%	–
CC(C)S(=O)(=O)c1ccc(-c2cc(-c3nc(-c4ccccc4)no3)n[nH]2)cc1	62%	101%	62%	101%	101%	62%	101%	62%	62%	101%	101%	62%	62%	101%	101%	101%	62%	62%	–
